The record followed here is PubChem BioAssay (NCI).

Holding throughout (test): NCI-60 cell line screen, 48 h
In test [1] the test system is U251 CNS.
Test [2] has as its system NCI-H226 lung.
Test [3] deals with OVCAR-8 ovarian.
For test [4], the system named is 786-0 renal.
Test [5] concerns NCI-H23 lung.
The test system of test [6] is SK-MEL-5 melanoma.
In test [7] the test system is HOP-62 NSCLC.
The subject of test [8] is SW-620 colon.
For test [9], the system named is SK-MEL-28 melanoma.
The subject of test [10] is A498 renal.

Where “and” joins values, the source holds several entries; their conditions need not be identical. Identical values can stand only once.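 Results reflect a 48-hour exposure of cells in 96-well plates to compound at five concentrations. GI50 is the concentration that inhibits growth by half. TGI: total growth inhibition.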 Where only a bound is given, the exact number is not on record here.

`C[C@@]12CCC[C@@](C)(C(=O)O)C1CC[C@]13C[C@@](O)(CO)[C@](O)(CCC12)C3` (some centres undefined): the GI50 in test [1], in test [2], in test [3], in test [4], in test [5] and in test [6] was > 100 µM in each case. The GI50 in test [7], in [8], in test [9] and in test [10] was > 100 µM in each case. Further, the TGI in [1], in test [2], in test [3], in test [4], in test [5] and in [6] was > 100 µM throughout. Moreover, the TGI in [7], in test [8], in [9] and in [10] was > 100 µM each time.

Consider `CC(C)=CCC/C(C)=C/CC/C(C)=C/CSc1ccccc1C(=O)O`, for which the GI50 in [1] was 23.4 µM; in test [2], 19.9 µM; in test [3], 23.9 µM; in test [4], 23.1 µM; in [5] it was 23.6 µM; in [6], 19.6 µM. Besides, the results for the GI50 in test [8], in [9] and in test [10] were 20.1 µM, 25.7 µM and 21.3 µM, respectively. In addition, the TGI is 59.9 µM and 44.5 µM in test [1]; 46.2 µM and 44.1 µM in [2]; > 65.5 µM and 36.6 µM in [3]; 78.9 µM and 32.1 µM in test [4]; 61.4 µM and 36.3 µM in test [5]; 41.5 µM and 29.5 µM in [6]. The TGI was 35.2 µM and 30.6 µM in test [7]; 42.5 µM and > 100 µM in [8]; 62 µM and 54.3 µM in [9]; 54.6 µM and 56.7 µM in [10].

For the compound `Cn1cnc([N+](=O)[O-])c1Sc1nc(N)nc2c1ncn2C1CC(O)C(CO)O1` (centres undefined), the TGI is > 100 µM in test [1]; 98.2 µM in [2]; > 100 µM in test [3]; > 100 µM in test [4]; > 55 µM in test [5]; 22.9 µM in test [6]. The TGI was > 100 µM in test [7], > 100 µM in test [8], > 100 µM in test [9] and 71.2 µM in test [10].

Regarding `C/C(=N\NS(=O)(=O)c1ccc(C)cc1)P(=O)(O)O`, the TGI in test [1], in test [2], in test [3], in [4], in [5] and in test [6] was > 100 µM throughout. Further, the TGI in test [7], in test [8], in [9] and in test [10] was > 100 µM throughout.

For the compound `CC(=O)OC[C@@H](COC(=O)/C=C/c1ccc(O)cc1)OC1OC(CO)C(O)C(O)C1O` (some centres undefined), the TGI in test [1], in [2], in [3], in test [4], in [5] and in [6] was > 100 µM throughout. Further, the TGI in test [7], in [8], in [9] and in test [10] was > 100 µM throughout.

Regarding `C=C1CCC2C3(C)COC(c4ccccc4)OC3CCC2(C)C1/C=C/C1=CCOC1=O` (centres undefined), the GI50 is 2.87 µM in [1]; 3.81 µM in test [2]; 4.11 µM in test [3]; 13 µM in test [4]; 9.68 µM in [5]; 8.67 µM in test [6]. The GI50 in test [7] is 22.9 µM; in test [8], 2.96 µM; in [9], 9.15 µM; in test [10] it was 17.9 µM. The TGI was 12.3 µM in [1]; 13.5 µM in test [2]; > 100 µM in test [3]; 30 µM in test [4]; 24.2 µM in [5]; 21.6 µM in test [6]. The TGI came to 46.7 µM in [7], 10 µM in [8], 26.6 µM in [9] and 46 µM in [10].

Turning to `Clc1ccc(-c2c3c(nn2-c2ccccn2)CCc2ccccc2-3)cc1Cl`, the GI50 in test [1] is > 100 µM; in [2], > 100 µM; in test [3] it was > 100 µM; in test [4], 85 µM; in [5], > 100 µM; in test [6], > 100 µM. Moreover, the GI50 is 50.2 µM in test [7], > 100 µM in test [8], > 100 µM in test [9] and > 100 µM in [10]. The TGI in test [1], in test [2], in test [3], in test [4], in test [5] and in test [6] was > 100 µM each time. Moreover, the TGI in [7], in test [8], in test [9] and in test [10] was > 100 µM each time.

For `COc1cc(-c2cc(O)c(-c3ccc4ccccc4n3)c(=O)[nH]2)cc(OC)c1OC`, the TGI in [1] was > 48.2 µM; in [2], > 77.6 µM; in test [3], > 54.9 µM; in test [4], > 69.6 µM; in test [5] it was > 95.5 µM; in test [6], 62.6 µM. Moreover, the TGI in test [7] was > 90.4 µM; in [8] it was 66.1 µM; in test [9], > 100 µM; in test [10], > 100 µM.

On to `[N-]=[N+]=NCCCCCC(=O)OC(C(=O)c1ccccc1)c1cccc(OCC(=O)NCCOCCOCCNC(=O)CCCC[C@@H]2SC[C@@H]3NC(=O)N[C@@H]32)c1` (some centres undefined), for which the GI50 in test [1], in test [2], in [3], in [4], in [5] and in [6] was > 100 µM in each case. Besides, the GI50 in [7], in test [8], in [9] and in [10] was > 100 µM throughout. Further, the TGI in test [1], in [2], in test [3], in [4], in test [5] and in test [6] was > 100 µM each time. Moreover, the TGI in test [7], in test [8], in test [9] and in test [10] was > 100 µM throughout.
